Laboratory results taken from ChEMBL document CHEMBL2074162, “P-glycoprotein-mediated transcellular transport of MDR-reversing agents” (FEBS Lett, 1993).

Target: ATP-dependent translocase ABCB1 (Homo sapiens, UniProt P08183)
Test: TP_TRANSPORTER: transepithelial transport (basal to apical) in MDR1-expressing LLC-PK1 cells
Assay type: functional, cell-based
Details: pig

Sequence of ATP-dependent translocase ABCB1 (P08183 whole entry): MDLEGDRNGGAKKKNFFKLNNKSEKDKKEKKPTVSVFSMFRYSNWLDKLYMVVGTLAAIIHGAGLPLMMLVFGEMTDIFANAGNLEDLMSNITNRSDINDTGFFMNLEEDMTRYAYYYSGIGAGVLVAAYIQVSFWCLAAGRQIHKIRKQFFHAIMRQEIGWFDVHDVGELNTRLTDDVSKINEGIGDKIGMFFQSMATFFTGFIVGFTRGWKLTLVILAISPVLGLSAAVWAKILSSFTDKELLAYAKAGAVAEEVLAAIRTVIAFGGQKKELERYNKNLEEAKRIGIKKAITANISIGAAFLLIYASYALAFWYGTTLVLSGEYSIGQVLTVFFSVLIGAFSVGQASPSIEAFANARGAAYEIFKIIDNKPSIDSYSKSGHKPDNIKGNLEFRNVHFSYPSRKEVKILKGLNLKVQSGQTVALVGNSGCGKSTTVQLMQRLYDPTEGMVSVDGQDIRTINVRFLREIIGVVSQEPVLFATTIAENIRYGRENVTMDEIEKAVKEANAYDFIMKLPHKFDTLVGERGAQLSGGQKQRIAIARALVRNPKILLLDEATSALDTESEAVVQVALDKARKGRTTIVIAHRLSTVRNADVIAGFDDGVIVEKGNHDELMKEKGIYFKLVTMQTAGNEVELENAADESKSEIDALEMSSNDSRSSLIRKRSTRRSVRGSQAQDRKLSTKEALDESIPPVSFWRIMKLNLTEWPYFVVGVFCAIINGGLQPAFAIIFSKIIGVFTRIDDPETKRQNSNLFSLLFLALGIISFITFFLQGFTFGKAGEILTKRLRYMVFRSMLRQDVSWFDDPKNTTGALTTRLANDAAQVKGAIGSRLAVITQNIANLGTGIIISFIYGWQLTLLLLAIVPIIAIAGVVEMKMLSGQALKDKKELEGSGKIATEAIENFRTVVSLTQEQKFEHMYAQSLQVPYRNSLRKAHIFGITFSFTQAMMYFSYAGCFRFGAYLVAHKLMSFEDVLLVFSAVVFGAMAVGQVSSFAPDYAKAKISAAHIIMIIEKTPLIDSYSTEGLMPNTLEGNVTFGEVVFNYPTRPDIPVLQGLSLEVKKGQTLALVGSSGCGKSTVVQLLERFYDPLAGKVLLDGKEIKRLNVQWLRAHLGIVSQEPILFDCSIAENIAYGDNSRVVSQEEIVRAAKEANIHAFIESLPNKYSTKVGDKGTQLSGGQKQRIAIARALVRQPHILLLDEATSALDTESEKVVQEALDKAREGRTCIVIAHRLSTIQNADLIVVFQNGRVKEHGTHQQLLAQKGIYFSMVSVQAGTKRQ

Activity | SMILES
substrate [+] | COc1ccc([C@@H]2Sc3ccccc3N(CCN(C)C)C(=O)[C@@H]2OC(C)=O)cc1 [DILTIAZEM]
substrate [+] | CCOC(=O)C1=C(C)NC(C)=C(C(=O)OCCNC(=O)c2ccc(N=[N+]=[N-])cc2)C1c1ccccc1C(F)(F)F (configuration not stated) [AZIDOPINE]
